For data set [1] the following is noted: no DMSO, cited from earlier work; for Shake-Flask So: literature / private correspondence.
Data set [2] can be described thus: solubility-pH by aqueous dilution method, 96-well UV. The data set is classed as physicochemical. The conditions noted are these: kinetic from dmso stock.
A short description of data set [3]: true pKa of the compounds (commercial pKa instruments / literature). The data set is classed as physicochemical. The conditions noted are these: pION unpublished data (footnote f). An excerpt: For ionizable molecules in dilute solutions (where salt precipitation may be ignored), when the log (logarithm) of the measured solubility is plotted vs. pH, the curve is bilinear, with one segment having a zero slope and the other segment having a unit slope (positive for acids and negative for bases). […]. In a simple aqueous equilibrium system, the pH where the asymptotes of the horizontal and diagonal segments intersect is equal to the pKa of the solute. Under such ideal circumstances, it is possible to determine the pKa and the intrinsic aqueous solubility, So, of the compound from the crossing of the segments [Z. T. Chowhan, J. Pharm. Sci. 1978, 67, 1257-1260; W. H. Streng, H. G. H. Tan, Int. J. Pharm. 1985, 25, 135-145]. Such pKa values can be directly measured by commercially-available devices [C. D. Bevan, A. P. Hill, D. P. Reynolds, Patent Cooperation Treaty, WO 99/13328, Mar. 18, 1999; Sirius Analytical Instruments Ltd., UK].
(2) Also, a novel and simple computational method is developed to extract the aqueous intrinsic solubilities of drug molecules from data altered by DMSO-drug binding, or drug-drug aggregation reactions, or drug reactions with non-ionizable excipients, using the difference between the apparent pKa measured by the analytical device and the true pKa measured by analytical devices available commercially (e.g., from Sirius Analytical Instruments Ltd., Forest Row, E. Sussex, UK).
We discovered that if one determines the pKa^APP (in the presence of the DMSO effect) in the solubility assay, and subtracts from it the true pKa (determined using commercial instruments such as those from Sirius, UK), the difference, when subtracted from the logarithm of the apparent (DMSO-distorted) solubility, So^APP, yields the true aqueous solubility constant:
Since the pKas of the studied compounds are known (Table 2), it was possible to calculate the pKa shifts (Δ values in Table 1).

Data set [4] in a line: true aqueous intrinsic solubility corrected from pKa shifts. The conditions noted are these: for solubility: aqueous buffer, kinetic from dmso stock; for log So (corrected): log of μg/mL, horizontal asymptote of dashed curve in FIG. 8. The data set is classed as physicochemical.
Data set [5] can be described thus: apparent pKa from fitted log S vs. pH curve. Type of data set: physicochemical. The following applies: saturated solutions; for pKa shift Δ (apparent pKa minus true pKa) / pKa shift Δ: DMSO-containing saturated solutions (FIG. 8); for pKa shift Δ (apparent pKa minus true pKa): read-out: pKa shift Δ = pKa^APP − pKa; for pKa shift Δ: pKa shift Δ = pKa^APP − pKa, heading: pKa shift Δ = pKa^APP − pKa.

The nature of data set [6]: physchem.
The conditions of data set [7]: literature (footnotes a, b); cited from earlier work.
The conditions of data set [8]: true pKa; literature sources (footnotes a, b, h); cited from earlier work.
A short description of data set [9]: intrinsic solubility by pSOL Model 3 acid-base titrator. The data set is classed as physicochemical. The conditions noted are these: pION unpublished data (footnote f). As for the experimental part: Solubility determinations are illustrated with 15 sparingly-soluble generic, mostly-ionizable drugs (FIG. 1), covering about three orders of magnitude in solubilities, with the lowest value being about 0.1 μg/mL (terfenadine at high pH). The ionizable bases include amiloride, amitriptyline, chlorpromazine, miconazole, nortriptyline, phenazopyridine, propranolol, and terfenadine. […] Piroxicam was picked as an example of an ampholyte, and griseofulvin as an example of a non-ionizable molecule. The results of the solubility measurements were compared to literature equilibrium solubility-pH values from reliable sources, and to values determined by the pSOL Model 3 (pION) acid-base titrator [A. Avdeef, C. M. Berger, C. Brownell, Pharm . Res. 2000, 17, 85-89].

Data set [10] can be described thus: solubility-pH by cosolvent method (50% v/v 1-propanol), 96-well UV. The data set is classed as physicochemical. The conditions noted are these: universal buffer solution, aqueous buffer, kinetic from dmso stock, 0.26% v/v DMSO, read-out: So^APP (apparent intrinsic solubility). As for the experimental part:
The “sample” track on the left side of FIG. 4a depicts a series of steps leading up to the taking of the sample spectrum in a water-cosolvent solution. A known quantity of sample (37) is added in a known volume of the universal buffer solution of known pH (38), the amount of said sample being sufficient to cause precipitation to occur in the formed saturated solution (39). After waiting a period of time to allow the saturated solution to reach a desired steady state, the solution is filtered (40) to remove the solid, and obtain a clear solution (41).
A volume Y of a water-miscible cosolvent 42 is added to a volume Z of solution 41 to produce a new solution 43, in which the compound is diluted by Z/(Y+Z), from its concentration in solution 41. The spectrum of solution 43 is then immediately taken by the UV spectrophotometer (44), to minimize evaporation of the water-cosolvent solution. The mathematical treatment of the spectral data yields the area-under-the-curve of the filtered cosolvent sample solution (43), AUCS^COS. […]
18. As soon as the solutions are mixed in step 17, the robot transfers 5 μL from the diluted sample stock solution (using the 20 μL tips) to the blank solutions whose spectra had just been read in step 16: 14→17 (Sd→U). […]
The solubility is calculated according to equation (8). The results for phenazopyridine stated in Table 2 were determined by the cosolvent method.

For data set [11] the following is noted: literature (Roseman, Yalkowsky 1973); cited from earlier work.
The mark [12] stands for this setting: universal buffer solution, 0.5% v/v DMSO, 4 h shaking, read-out: So^APP (apparent intrinsic solubility).
[13] abbreviates: saturated pH-buffered aqueous solution (universal buffer), read-out: corrected So (intrinsic solubility corrected for drug-DMSO/drug-aggregate effects).
Setting [14] is: pKa (I = 0.012 M, 50 vol % CH3CN).
The mark [15] stands for this setting: read-out: corrected So (intrinsic solubility corrected for drug-DMSO/drug-aggregate effects).

Values after ≈ are worked out from the molar mass of the structure shown. Values joined by “and” are separate entries in the source; they are usually repeats but may differ in a detail not shown here. Identical values can stand only once. Like-named read-outs stand apart in the source and are kept apart here. Marks after values point to notes of the source that are not given here.

Take `O=C(O)c1ccc2ccccc2c1` [2-naphthoic acid]: the “Shake-Flask So” value in [1] is 22.4^g μg/mL. Further, the solubility at 4 h in data set [2] (setting [12]) worked out at 33.3 µg/mL (≈ 193 µM). Further, the pKa in [3] came out at 4.16. Besides, the solubility in data set [4] (setting [13]) amounted to 20.2 µg/mL. Besides, in data set [5], the pKa shift Δ (apparent pKa minus true pKa) was greater than 0.
For `OB(O)O` [Boric Acid, boric acid], the pKa in [6] (pH 3, pKa (I = 0.020M)) was 9.13.
In data set [6] (setting [14]), `O=C(O)CO` [Glycolic Acid, glycolic acid] came in with a pKa of 4.56.
For `O=S(=O)(O)CCN1CCOCC1` [MES monohydrate, 4-morpholine-ethanesulfonic acid], the pKa in [6] (pH 3, pKa (I = 0.020M)) came out at 6.08; in data set [6] (setting [14]), 6.24.
`NCCS(=O)(=O)O` [Taurine, 2-aminoethanesulfonic acid]: in data set [6] (setting [14]), the pKa was 8.95.
On to `CN(C)CCC=C1c2ccccc2CCc2ccccc21` [amitriptyline], for which the “Shake-Flask So” value in data set [1] was 2.0^a μg/mL. Moreover, the solubility at 4 h in data set [2] (setting [12]) was 56.9 µg/mL (≈ 205 µM). For the same molecule, the solubility in data set [4] (setting [13]) stood at 3 µg/mL. In data set [7], the “pSOL So” value is reported as 2.0^a μg/mL. In addition, the pKa in [8] was 9.45^a. In addition, in data set [5], the pKa shift Δ was less than 0.
In the case of `CN(C)CCCN1c2ccccc2Sc2ccc(Cl)cc21` [chlorpromazine], the solubility at 4 h in [2] (setting [12]) was 19.4 µg/mL (≈ 60.8 µM). Also, in data set [4] (setting [15]), the solubility worked out at 3.4 µg/mL. The “log So (corrected)” value in data set [4] is 0.528.
Consider `O=C(O)Cc1ccccc1Nc1c(Cl)cccc1Cl` [diclofenac], for which, in data set [1], the “Shake-Flask So” value was 0.6^b μg/mL. Besides, in [2] (setting [12]), the solubility at 4 h turned out to be 22.6 µg/mL (≈ 76.3 µM). The solubility in data set [4] (setting [13]) came out at 3.8 µg/mL. The “pSOL So” value in [7] was 0.8^b μg/mL.
For `NS(=O)(=O)c1cc(C(=O)O)c(NCc2ccco2)cc1Cl` [furosemide], in data set [1], the “Shake-Flask So” value is on record as 12.0^b μg/mL. For the same molecule, in [7], the “pSOL So” value was 5.9^b μg/mL.
For `COC1=CC(=O)C[C@@H](C)[C@]12Oc1c(Cl)c(OC)cc(OC)c1C2=O` [griseofulvin], the “Shake-Flask So” value in [1] was 9^d μg/mL. Moreover, the solubility at 4 h in data set [2] (setting [12]) was 37.6 µg/mL (≈ 107 µM). In addition, the solubility in data set [4] (setting [13]) was found to be 20.2 µg/mL. In data set [8], the pKa result is “non-”.
In the case of `COc1ccc2c(c1)c(CC(=O)O)c(C)n2C(=O)c1ccc(Cl)cc1` [indomethacin], the “Shake-Flask So” value in [1] is 2.0 µg/mL and 1 µg/mL. For the same molecule, the solubility at 4 h in [2] (setting [12]) was 7.2 µg/mL (≈ 20.1 µM). The solubility in data set [4] (setting [13]) came to 4.1 µg/mL. In addition, in [7], the “pSOL So” value is given as 2.0^a μg/mL.
With `Clc1ccc(COC(Cn2ccnc2)c2ccc(Cl)cc2Cl)c(Cl)c1` (centres unmarked) [miconazole], in data set [9], the “pSOL So” value is on record as 0.7^f μg/mL. Moreover, in [2] (setting [12]), the solubility at 4 h amounted to 11.1 µg/mL (≈ 26.7 µM). In [3], this molecule showed a pKa of 6.07. In data set [4] (setting [13]), the solubility was 1.6 µg/mL. The pKa shift Δ (apparent pKa minus true pKa) in [5] was less than 0.
As for `CNCCC=C1c2ccccc2CCc2ccccc21` [nortriptyline], the solubility at 4 h in [2] (universal buffer solution, in 0.5% v/v DMSO, read-out: solubility) is greater than 98 µg/mL.
As for `Nc1ccc(/N=N/c2ccccc2)c(N)n1` [phenazopyridine], the “pSOL So” value in data set [9] is recorded as 14.3^f μg/mL. Also, the pKa is 5.15 in data set [3] and 5.83 in [5] (saturated solutions containing 0.26% v/v DMSO, read-out: apparent pKa (pKa^APP)). In addition, in data set [4] (saturated pH-buffered aqueous solution (universal buffer), from So^APP in 0.26% v/v DMSO, cosolvent method, read-out: corrected So (intrinsic solubility corrected for drug-DMSO/drug-aggregate effects)), the solubility is 12.2 µg/mL. The solubility at 4 h in data set [10] stood at 12.2 µg/mL (≈ 57.2 µM). Besides, the pKa shift Δ in [5] is no less than 0.
`CN1C(C(=O)Nc2ccccn2)=C(O)c2ccccc2S1(=O)=O` [piroxicam]: the “pKa deduced from literature solubility data” value in data set [1] (Jinno et al.) is given as 5.63. Also, the “Shake-Flask So” value in data set [1] was 9.1^i μg/mL and 8-16^j μg/mL. Further, the solubility at 4 h in data set [2] (setting [12]) came out at 10.5 µg/mL (≈ 31.7 µM). In addition, the solubility in data set [4] (setting [15]) was 1.1 µg/mL. Further, the “log So (corrected)” value in data set [4] came to 0.041. Moreover, the pKa in [5] (0.5% v/v DMSO, solid curve in FIG. 8, read-out: apparent pKa (pKa^APP)) is 6.05. In addition, in data set [5], the pKa shift Δ amounted to 0.98.
For the molecule `CCCN(CCC)S(=O)(=O)c1ccc(C(=O)O)cc1` [probenecid], the “pSOL So” value in data set [9] is 0.6^f μg/mL. For the same molecule, in data set [2] (setting [12]), the solubility at 4 h turned out to be 4.6 µg/mL (≈ 16.1 µM). Further, the pKa in data set [3] amounted to 3.01. Further, the solubility in data set [4] (setting [13]) was 0.7 µg/mL. In addition, the pKa shift Δ (apparent pKa minus true pKa) in data set [5] was greater than 0.
For the molecule `CC(C)NCC(O)COc1cccc2ccccc12` (centres unmarked) [propranolol], in data set [2] (aqueous buffer, in 0.5% v/v DMSO, read-out: solubility), the solubility at 4 h is roughly 100 µg/mL (≈ 386 µM).
Turning to `CC(C)(C)c1ccc(C(O)CCCN2CCC(C(O)(c3ccccc3)c3ccccc3)CC2)cc1` (centres unmarked) [terfenadine], the “pSOL So” value in [9] is given as 0.1^f μg/mL. Further, the solubility at 4 h in [2] (setting [12]) was 4.4 µg/mL (≈ 9.33 µM). Besides, the pKa in data set [3] stood at 9.53. For the same molecule, the solubility was roughly 0.1 µg/mL in data set [4] (at high pH, read-out: solubility (lowest value)) and 0.1 µg/mL in data set [4] (setting [13]). Moreover, the pKa shift Δ (apparent pKa minus true pKa) in data set [5] was less than 0.
Regarding prostaglandin F2α, the “pKa shift Δ = pKa^APP − pKa” value in data set [11] is listed as “Δ < or = 0”.

Values taken from patent US6569686B2, “Measurement of solubility-pH profiles” (Pion, Inc., priority 2000, dated 2003).
